How the values were obtained:
[1] = system: human prostate cancer cells (PC3); assay: Assessment of cytotoxicity by SRB assay, PC3; assay type: cell-based; conditions: androgen-independent metastatic human prostate cancer cells (PC3), 72 h, 0.01 μM to 100 μM
Experimental: (§1) The human prostate cancer cells (PC3) and human osteosarcoma cells (MG-63) were obtained from Nawah Scientific Inc. (Mokatam, Cairo, Egypt) and cultured in DMEM (Dulbecco's modified eagle's medium), Gibco, USA, supplemented with fetal bovine serum (FBS) at a concentration of 10% and 100 U/mL of penicillin and streptomycin (PS). The Cells were incubated at 37° C. in a humidified environment that contained 5% CO2.
(§2) Cells were seeded in 96-well plates as aliquots of 100 μL cell suspension and incubated in a complete media for 24 h. afterward, cells were treated with N′-(1-naphthoyloxy)-2-(benzo[d]thiazol-2-yl)acetimidamide at diverse concentrations ranging from 0.01 μM to 100 μM for 72 h. Then, cells were fixed at 4° C. for one hour with 150 μL of 10% trichloroacetic acid (TCA). After washing the cells five times with distilled water, 70 μL of sulforhodamine (SRB) solution (0.4% w/v) was added and incubated for 10 min at room temperature in a dark place. […] Then, 150 μL of Tris pH 10.5 (10 mM) was added, and the absorbance was measured at 540 nm using a BMG LABTECH®-FLUOstar Omega microplate reader (Ortenberg, Germany). Half maximal inhibitory concentrations (IC50) values were calculated for each experiment using GraphPad Prism 6 software. […]
(§3) The inhibition was calculated using the following equation: Inhibition %=100−Average Viability

[2] = system: human osteosarcoma cells (MG-63); assay: Assessment of cytotoxicity by SRB assay, MG-63; assay type: cell-based; conditions: osteosarcoma (MG-63) cells, 72 h, 0.01 μM to 100 μM
Experimental: as §1, §2, §3

[3] = target: Bovine Serum Albumin (Bos taurus, UniProt P02769); assay: Bovine Serum Albumin Assay (BSA), inhibition of protein denaturation; assay type: biochemical; conditions: BSA 0.4% w/v, pH 6.4, 72° C. for 10 minutes, 20-100 μg/mL, turbidity at 660 nm
Experimental: In vitro-inflammatory activities of the tested samples were determined using a modified method of the BSA assay reported by Williams et al. BSA solution (0.4%, w/v) was prepared in Tris Buffered Saline. The pH was adjusted to 6.4 with glacial acetic acid. Different dilutions of 20, 40, 60, 80, and 100 μg/mL of the stock solutions were added to test tubes containing 1 mL of 0.4%, w/v BSA buffer solution. Both negative (solvent) and positive (aspirin) controls were assayed in a similar manner. The solutions were then heated in a water bath at 72° C. for 10 minutes and cooled for 20 minutes under laboratory conditions. The turbidity of the solutions (level of protein precipitation) was measured at 660 nm in Spectrophotometer (V-770 UV-Visible/NIR Spectrophotometer).
The percentage inhibition of precipitation (protein denaturation) was determined relative to the negative control using the following equation:
[formula] % Anti-Denaturation Activity=% Inhibition of Protein Denaturation=% Anti-inflammatory Activity

Sequence of Bovine Serum Albumin (P02769 25-607): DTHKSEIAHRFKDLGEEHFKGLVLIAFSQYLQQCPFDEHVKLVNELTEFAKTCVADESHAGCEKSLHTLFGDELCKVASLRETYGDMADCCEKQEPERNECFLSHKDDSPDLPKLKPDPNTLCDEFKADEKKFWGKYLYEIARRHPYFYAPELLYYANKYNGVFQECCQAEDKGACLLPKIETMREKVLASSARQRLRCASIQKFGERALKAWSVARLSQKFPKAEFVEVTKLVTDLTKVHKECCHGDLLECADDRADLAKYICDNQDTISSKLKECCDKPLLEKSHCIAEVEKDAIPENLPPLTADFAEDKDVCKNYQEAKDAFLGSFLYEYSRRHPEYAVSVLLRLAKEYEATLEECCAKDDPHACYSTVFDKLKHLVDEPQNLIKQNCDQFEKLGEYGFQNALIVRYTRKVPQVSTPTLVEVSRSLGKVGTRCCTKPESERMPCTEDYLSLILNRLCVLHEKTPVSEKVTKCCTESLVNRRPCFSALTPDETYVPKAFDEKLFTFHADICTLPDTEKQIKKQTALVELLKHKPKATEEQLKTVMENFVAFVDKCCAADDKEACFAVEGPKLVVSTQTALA

in vitro anti-inflammatory activity (inhibition of protein denaturation) [3]: considerable anti-inflammatory effect
melting point: 251 to 253 °C
Compound: O=C(O)c1cn(C2CC2)c2cc(N3CCN(Cn4nc(/N=C/c5cccc(Br)c5)sc4=S)CC3)c(F)cc2c1=O [7-(4-((5-(3-bromobenzylideneamino)-2-thioxo-1,3,4-thiadiazol-3(2H)-yl)methyl)piperazin-1-yl)-1-cyclopropyl-6-fluoro-4-oxo-1,4-dihydroquinoline-3-carboxylic acid]
antiproliferative activity against PC3 cells [1]: excellent antiproliferative activities
antiproliferative activity against MG-63 cells [2]: excellent antiproliferative activities
